Laboratory results published in patent US6894061B2, “Substituted dihydrophenanthridinesulfonamides” (Wyeth, priority 2002, dated 2005).
Read-outs that look alike come from different tables or passages of the source.

Assays:
creatine kinase = assay: Creatine kinase (CK) test procedure in Ad5-wt-ERα infected HAECT-1 cells; assay type: cell-based, human; settings: Ad5-wt-ERα infected HAECT-1 cells; for Emax at 10 µM / Creatin Kinase Efficacy (%): @10 μM
Method: (§1) After four hours, cells were washed with EBM-BSA and incubated overnight in the same medium. Following overnight incubation, cells were washed with EBM-BSA and infected for 2 hours with 6 mL of a 1:10 dilution of Ad5-3x(NFκB).Luc virus (Adenovirus luciferase expression vector driven by 3 repeats of the MHC NFκb site 5′ to the thymidine kinase promoter) in EBM-BSA. After two hours, cells were washed and incubated at 34° C. for 1 hour. […] Control (no ER infection) cells were processed as above without Ad5-wt-hERα virus infection.
(§2) ERα infected HAECT-1 cells or control cells were thawed, diluted 42× in warm EBM-BSA, plated into 96-well plates at 0.1 mL/well and incubated for 4 hours at 34° C. Test compounds were added to the cells as 2× stocks in EBM-BSA containing 2 ng/mL IL-1β (R&D Systems) and the 96-well plates were returned to the incubator (34° C.). After 15-20 hours, 100 μL aliquots of media were removed from the cells and assayed for IL-6 content using a BioSource human IL-6 ELISA Kit. Cells were subsequently washed with 300 μL of Dulbecco's phosphate buffered saline and lysed in 50 μL of Cell Culture Lysis Reagent (Promega). Luciferase was determined on a Wallac Victor^2 Luminometer (Gaithersburg, Md.) using 10 μL of lysate and mixing with 100 μL of Promega Luciferase Assay reagent. Creatine kinase was determined from the rate of increase in A340 following addition of 100 μL of CK assay reagent (Sigma, cat. No 47-10) to the remainder of the cell lysate.
(§3) For IC50 and EC50 calculations, mean IL-6, luciferase or CK values versus log10 of the compound concentration were fitted to a four parameter logistic equation. The IC50/EC50 value, ‘Hill slope’, upper and lower limits of the curve were iteratively estimated.

ER/NF-κB = ER/NF-κB luciferase reporter in Ad5-wt-ERα infected HAECT-1 cells; assay type: cell-based, human; settings: for Emax: read-out: ER/NFκB Efficacy (%)*; for IC50: read-out: ER/NFκB IC50
Method: as §1, §2, §3

[1] = Homo sapiens, HAECT1, read-out: Creatin Kinase Efficacy (%)

IC50 (ER/NF-κB; Homo sapiens, HAECT1, IL-1β) [nM] | Structure (SMILES) | Emax at 10 µM (creatine kinase; [1]) [%] | Emax (ER/NF-κB; Homo sapiens, HAECT1, IL-1β) [%] | also measured
831 | CCC1c2ccccc2-c2cc(Br)ccc2N1S(=O)(=O)c1ccc(O)c(C)c1 (stereo not shown) [Example 21, 4-[(2-Bromo-6-ethylphenanthridin-5(6H)-yl)sulfonyl]-2-methylphenol] | < 35 | 85 | –
> 10000 | CC1c2cc(F)ccc2-c2ccccc2N1S(=O)(=O)c1ccc(O)c(F)c1 (stereo not shown) [Example 49, 2-Fluoro-4-[(8-fluoro-6-methylphenanthridin-5(6H)-yl)sulfonyl]phenol] | < 35 | – | melting point: 191 °C
186 | CCC1c2ccccc2-c2cc(Br)ccc2N1S(=O)(=O)c1ccc(O)cc1 (stereo not shown) [Example 19, 4-[(2-Bromo-6-ethylphenanthridin-5(6H)-yl)sulfonyl]phenol] | < 35 | 80 | –
– | CCC1c2ccccc2-c2cc(-c3ccc(C(C)=O)s3)ccc2N1S(=O)(=O)c1ccc(O)cc1 (stereo not shown) [Example 76, 1-(5-{6-Ethyl-5-[(4-hydroxyphnyl)sulfonyl]-5,6-dihydrophnanthridin-2-yl}thin-2-yl)ethanone] | – | – | Creatin Kinase Efficacy (%) (creatine kinase): <35% @10 μM; ER/NFκB Efficacy (%)* (ER/NF-κB; IL-1β): 67%; IC50 (ER/NF-κB; IL-1β): 1180 nM
447 | CCC1c2ccccc2-c2cc(-c3cccc(O)c3)ccc2N1S(=O)(=O)c1ccc(O)c(C)c1 (stereo not shown) [Example 84, 4-{[6-Ethyl-2-(3-hydroxyphenyl)phenanthridin-5(6H)-yl]sulfonyl}-2-methylphenol] | < 35 | 80 | –
2550 | CCC1c2ccccc2-c2cc(-c3cc4ccccc4s3)ccc2N1S(=O)(=O)c1ccc(O)c(C)c1 (stereo not shown) [Example 90, 4-{[2-(1-Benzothien-2-yl)-6-ethylphenanthridin-5(6H)-yl]sulfonyl}-2-methylphenol] | < 35 | 108 | –
> 10000 | CCC1c2ccccc2-c2ccccc2N1S(=O)(=O)c1ccc(O)c(C)c1 (stereo not shown) [Example 20, 4-[(6-Ethylphenanthridin-5(6H)-yl)sulfonyl]-2-methylphenol] | < 35 | – | –
245 | CCC1c2ccccc2-c2cc(-c3cccc(Cl)c3)ccc2N1S(=O)(=O)c1ccc(O)cc1 (stereo not shown) [Example 67, 4-{[2-(3-Chlorophenyl)-6-ethylphenanthridin-5(6H)-yl]sulfonyl}phenol] | < 35 | 79 | –
52 | CCC1c2ccccc2-c2cc(-c3ccc(O)cc3)ccc2N1S(=O)(=O)c1ccc(O)cc1 (stereo not shown) [Example 73, 4-{[6-Ethyl-2-(4-hydroxyphenyl)phenanthridin-5(6H)-yl]sulfonyl}phenol] | < 35 | 56 | –
– | CCC1c2ccccc2-c2cc(-c3ccccc3O)ccc2N1S(=O)(=O)c1ccc(O)cc1 (stereo not shown) [Example 63, 2-{6-Ethyl-5-[(4-hydroxyphnyl)sulfonyl]-5,6-dihydrphnanthridin-2-yl}ph nol] | – | – | Creatin Kinase Efficacy (%) (creatine kinase): <35% @10 μM; ER/NFκB Efficacy (%)* (ER/NF-κB; IL-1β): 89%; IC50 (ER/NF-κB; IL-1β): 335 nM
68 | CCC1c2cc(F)ccc2-c2cc(-c3ccsc3)ccc2N1S(=O)(=O)c1ccc(O)cc1 (stereo not shown) [Example 52, 4-[(6-Ethyl-8-fluoro-2-thien-3-ylphenanthridin-5(6H)-yl)sulfonyl]phenol] | < 35 | 95 | –
– | CCC1c2ccccc2-c2cc(-c3ccccc3)ccc2N1S(=O)(=O)c1ccc(O)cc1 (stereo not shown) [Example 69, 4-[(6-Ethyl-2-phnylphenanthridin-5(6H)-yl)sulfonyl]phenol] | – | – | Creatin Kinase Efficacy (%) (creatine kinase): <35% @10 μM; ER/NFκB Efficacy (%)* (ER/NF-κB; IL-1β): 90%; IC50 (ER/NF-κB; IL-1β): 235 nM
241 | CCC1c2ccccc2-c2cc(/C=C/c3ccccc3)ccc2N1S(=O)(=O)c1ccc(O)cc1 (stereo not shown) [Example 65, 4-{[6-Ethyl-2-[(E)-2-phenylethenyl]phenanthridin-5(6H)-yl]sulfonyl}phenol] | < 35 | 93 | –
234 | CCC1c2ccccc2-c2cc(-c3cccc(OC)c3)ccc2N1S(=O)(=O)c1ccc(O)cc1 (stereo not shown) [Example 29, 4-{[6-Ethyl-2-(3-methoxyphenyl)phenanthridin-5(6H)-yl]sulfonyl}phenol] | < 35 | 86 | –
– | CC1c2ccccc2-c2ccccc2N1S(=O)(=O)c1ccc(O)c(C(=O)O)c1 (stereo not shown) [Example 24, 2-Hydroxy-5-[(6-methylphenanthridin-5(6H)-yl)sulfonyl]benzoic acid] | – | – | melting point: 225 to 230 °C
– | CCOC(=O)c1cc(S(=O)(=O)N2c3ccccc3-c3ccccc3C2C)ccc1OCC (stereo not shown) [Example 25, Ethyl 2-ethoxy-5-[(6-methylphenanthridin-5(6H)-yl)sulfonyl]benzoate] | – | – | melting point: 113 to 115 °C
– | CC1c2cc(Cl)ccc2-c2ccccc2N1S(=O)(=O)c1ccc(O)cc1 (stereo not shown) [Example 61, 4-[(8-Chloro-6-methylphenanthridin-5(6H)-yl)sulfonyl]phenol] | – | – | melting point: 176 to 178 °C
> 10000 | CC1c2c(O)cccc2-c2ccccc2N1S(=O)(=O)c1ccc(O)cc1 (stereo not shown) [Example 39, 5-[(4-Hydroxyphenyl)sulfonyl]-6-methyl-5,6-dihydrophenanthridin-7-ol] | < 35 | – | –
– | CCC1c2ccccc2-c2cc(-c3ccsc3)ccc2N1S(=O)(=O)c1ccc(O)cc1 (stereo not shown) [Example 28, 4-[(6-Ethyl-2-thin-3-ylphnanthridin-5(6H)-yl)sulfonyl]phenol] | – | – | Creatin Kinase Efficacy (%) (creatine kinase): <35% @10 μM; ER/NFκB Efficacy (%)* (ER/NF-κB; IL-1β): 98%; IC50 (ER/NF-κB; IL-1β): 76 nM
771 | CCC1c2ccccc2-c2cc(-c3ccccc3O)ccc2N1S(=O)(=O)c1ccc(O)c(C)c1 (stereo not shown) [Example 78, 4-{[6-Ethyl-2-(2-hydroxyphenyl)phenanthridin-5(6H)-yl]sulfonyl}-2-methylphenol] | < 35 | 79 | –
– | CCC1c2cc(F)ccc2-c2cc(-c3cccnc3)ccc2N1S(=O)(=O)c1ccc(O)cc1 (stereo not shown) [Example 127, 4-[(6-Ethyl-8-fluoro-2-pyridin-3-ylphenanthridin-5(6H)-yl)sulfonyl]phenol] | – | – | melting point: 195 to 200 °C
– | CCC1c2ccccc2-c2cc(-c3ccccc3C)ccc2N1S(=O)(=O)c1ccc(O)cc1 (stereo not shown) [Example 70, 4-{[6-Ethyl-2-(2-mthylphnyl)phenanthridin-5(6H)-yl]sulfonyl}phenol] | – | – | Creatin Kinase Efficacy (%) (creatine kinase): <35% @10 μM; ER/NFκB Efficacy (%)* (ER/NF-κB; IL-1β): 90%; IC50 (ER/NF-κB; IL-1β): 463 nM
3930 | CCc1ccc(-c2ccc3c(c2)-c2ccccc2C(CC)N3S(=O)(=O)c2ccc(O)cc2)cc1 (stereo not shown) [Example 75, 4-{[6-Ethyl-2-(4-ethylphenyl)phenanthridin-5(6H)-yl]sulfonyl}phenol] | < 35 | 116 | –
529 | CCC1c2ccccc2-c2ccccc2N1S(=O)(=O)c1ccc(O)cc1 (stereo not shown) [Example 18, 4-[(6-Ethylphenanthridin-5(6H)-yl)sulfonyl]phenol] | < 35 | 76 | –
226 | CCC1c2ccccc2-c2cc(-c3ccsc3)ccc2N1S(=O)(=O)c1ccc(O)c(C)c1 (stereo not shown) [Example 79, 4-[(6-Ethyl-2-thien-3-ylphenanthridin-5(6H)-yl)sulfonyl]-2-methylphenol] | < 35 | 86 | –
434 | CCC1c2ccccc2-c2cc(-c3ccccc3Cl)ccc2N1S(=O)(=O)c1ccc(O)cc1 (stereo not shown) [Example 74, 4-{[2-(2-Chlorophenyl)-6-ethylphenanthridin-5(6H)-yl]sulfonyl}phenol] | < 35 | 96 | –
– | CCC1c2ccccc2-c2cc(-c3ccc(O)cc3)ccc2N1S(=O)(=O)c1ccc(O)c(C)c1 (stereo not shown) [Example 94, 4-{[6-Ethyl-2-(4-hydroxyphnyl)phenanthridin-5(6H)-yl]sulfnyl}-2-methylph nl] | – | – | Creatin Kinase Efficacy (%) (creatine kinase): <35% @10 μM; ER/NFκB Efficacy (%)* (ER/NF-κB; IL-1β): 105%; IC50 (ER/NF-κB; IL-1β): 382 nM
> 10000 | CCC1c2cc(F)ccc2-c2ccccc2N1S(=O)(=O)c1ccc(OC(=O)c2ccccc2)cc1 (stereo not shown) [Example 55, 4-[(6-Ethyl-8-fluorophenanthridin-5(6H)-yl)sulfonyl]phenyl benzoate] | – | – | EC50 (creatine kinase; Homo sapiens, HAECT1, read-out: Creatin Kinase EC50): 239 nM; Emax (creatine kinase; [1]): 32%
– | CC1c2ccccc2-c2ccccc2N1S(=O)(=O)c1ccc(O)c(C=O)c1 (stereo not shown) [Example 27, 2-Hydroxy-5-[(6-methylphenanthridin-5(6H)-yl)sulfonyl]b nzald hyde] | – | – | Creatin Kinase Efficacy (%) (creatine kinase): <35% @10 μM; IC50 (ER/NF-κB; IL-1β): > 10000 nM
678 | CCC1c2ccccc2-c2cc(-c3ccccc3Cl)ccc2N1S(=O)(=O)c1ccc(O)c(C)c1 (stereo not shown) [Example 95, 4-{[2-(2-Chlorophenyl)-6-ethylphenanthridin-5(6H)-yl]sulfonyl}-2-methylphenol] | < 35 | 89 | –
